# Results as given in publication PMC7932537, “Quantitative profiling of protease specificity” (PLoS Computational Biology, 2021).
# Key:
# MMP-2 [1] = assay: Substrate phage display with NGS: relative probability (RP) of P3-P1' tetramer clusters; format: biochemical, human; details: MMP2;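 also: ratio of tetramer probability after protease selection to that in naive phage library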
# MMP-2 [2] = molecular target: T1, MMP-2 (Homo sapiens, UniProt P08253); assay: K(obs) of individual phage substrates (set of 1369); format: biochemical; details: MMP2
# T1 sequence (P08253 110-660): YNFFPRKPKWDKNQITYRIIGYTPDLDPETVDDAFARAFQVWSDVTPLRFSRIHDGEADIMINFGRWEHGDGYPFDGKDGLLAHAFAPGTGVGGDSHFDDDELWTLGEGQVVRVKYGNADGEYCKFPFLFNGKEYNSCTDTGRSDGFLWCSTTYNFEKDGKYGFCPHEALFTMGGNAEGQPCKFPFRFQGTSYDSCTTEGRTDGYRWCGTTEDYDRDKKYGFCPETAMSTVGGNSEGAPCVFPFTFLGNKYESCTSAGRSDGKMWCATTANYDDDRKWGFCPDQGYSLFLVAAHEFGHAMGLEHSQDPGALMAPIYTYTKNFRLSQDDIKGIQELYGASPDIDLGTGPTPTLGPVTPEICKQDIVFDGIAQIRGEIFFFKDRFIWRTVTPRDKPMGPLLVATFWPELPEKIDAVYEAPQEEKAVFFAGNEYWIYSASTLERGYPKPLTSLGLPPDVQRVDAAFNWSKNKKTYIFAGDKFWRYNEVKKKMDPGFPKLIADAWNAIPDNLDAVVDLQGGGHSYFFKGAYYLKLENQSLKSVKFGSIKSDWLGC
# MMP-9 = MMP-9 (Homo sapiens, UniProt P14780); assay: as above; format: biochemical; details: MMP9
# MMP-9, sequence (P14780 94-707): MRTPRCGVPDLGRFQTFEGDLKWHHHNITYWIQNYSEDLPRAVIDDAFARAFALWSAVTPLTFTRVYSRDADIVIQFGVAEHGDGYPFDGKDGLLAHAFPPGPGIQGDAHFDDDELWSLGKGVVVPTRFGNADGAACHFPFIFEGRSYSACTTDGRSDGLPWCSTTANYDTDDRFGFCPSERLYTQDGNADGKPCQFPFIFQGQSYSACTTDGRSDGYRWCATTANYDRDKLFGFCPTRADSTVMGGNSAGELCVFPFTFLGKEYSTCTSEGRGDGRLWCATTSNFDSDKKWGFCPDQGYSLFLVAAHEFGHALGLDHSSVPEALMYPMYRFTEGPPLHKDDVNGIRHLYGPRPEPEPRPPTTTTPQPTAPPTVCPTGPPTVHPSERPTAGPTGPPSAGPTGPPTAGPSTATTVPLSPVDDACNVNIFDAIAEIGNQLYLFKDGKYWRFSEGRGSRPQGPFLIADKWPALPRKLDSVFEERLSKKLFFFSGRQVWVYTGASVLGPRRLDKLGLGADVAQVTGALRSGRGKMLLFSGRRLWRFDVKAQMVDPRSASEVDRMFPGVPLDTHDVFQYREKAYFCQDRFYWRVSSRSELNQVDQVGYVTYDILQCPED
# [3] = RP of the P3-P1' tetramer contained in the substrate
# [4] = individual phage substrate of the set of 1369 peptides, cleavage position marked by '-'
# [5] = individual phage substrate of the set of 1369 peptides, dash in the sequence marks the cleavage position
# [6] = RP of the P3-P1' tetramer contained in the substrate (substrate phage display with NGS)
# [7] = individual phage substrates, set of 1369 peptides, cleavage position marked by hyphen in sequence
# [8] = individual phage substrates, set of 1369 peptides, hyphen in sequence marks cleavage position
# [9] = individual phage substrates, set of 1369 peptides, cleavage position marked by '-' in the sequence
# [10] = individual phage substrates, set of 1369 peptides, '-' marks the cleavage position (P1-P1')
# [11] = individual phage substrate from the set of 1369 peptides, cleavage position marked by the dash in the sequence
# [12] = individual phage substrates, set of 1369 peptides, dash in sequence marks cleavage position
Substance,Kobs (MMP-2 [2]; [9]) [M⁻¹ s⁻¹],Kobs (MMP-9; [10]) [M⁻¹ s⁻¹],Kobs (MMP-2 [2]; [11]) [M⁻¹ s⁻¹],Kobs (MMP-9; [12]) [M⁻¹ s⁻¹],other results
AAWAS-ITASG,–,–,–,–,relative probability (RP) (MMP-2 [1]; [3]): 12.5247; Kobs (MMP-2 [2]; [4]): 6396.07 M⁻¹ s⁻¹; Kobs (MMP-9; [5]): 0 M⁻¹ s⁻¹
ACIWS-LTASG,–,–,–,–,relative probability (RP) (MMP-2 [1]; [3]): 5.404; Kobs (MMP-2 [2]; [4]): 27.918 M⁻¹ s⁻¹; Kobs (MMP-9; [5]): 355.093 M⁻¹ s⁻¹
AFLSH-WTASG,–,–,–,–,relative probability (RP) (MMP-2 [1]; [6]): 23.1226; Kobs (MMP-2 [2]; [7]): 12792.1 M⁻¹ s⁻¹; Kobs (MMP-9; [8]): 0 M⁻¹ s⁻¹
AGPQP-LTASG,–,–,–,–,relative probability (RP) (MMP-2 [1]; [6]): 30.3595; Kobs (MMP-2 [2]; [7]): 12792.1 M⁻¹ s⁻¹; Kobs (MMP-9; [8]): 12792.1 M⁻¹ s⁻¹
AGVRY-LTASG,–,–,–,–,relative probability (RP) (MMP-2 [1]; [6]): 18.3724; Kobs (MMP-2 [2]; [7]): 5889.62 M⁻¹ s⁻¹; Kobs (MMP-9; [8]): 7815.03 M⁻¹ s⁻¹
AHFAH-LTASG,–,–,–,–,relative probability (RP) (MMP-2 [1]; [6]): 19.6504; Kobs (MMP-2 [2]; [7]): 2687.73 M⁻¹ s⁻¹; Kobs (MMP-9; [8]): 0 M⁻¹ s⁻¹
AHVFA-LTASG,–,–,–,–,relative probability (RP) (MMP-2 [1]; [6]): 11.8827; Kobs (MMP-2 [2]; [7]): 4205.91 M⁻¹ s⁻¹; Kobs (MMP-9; [8]): 8941.32 M⁻¹ s⁻¹
AHYAS-LTASG,–,–,–,–,relative probability (RP) (MMP-2 [1]; [3]): 26.9916; Kobs (MMP-2 [2]; [4]): 10866.7 M⁻¹ s⁻¹; Kobs (MMP-9; [5]): 0 M⁻¹ s⁻¹
AKVMS-LTASG,–,–,–,–,relative probability (RP) (MMP-2 [1]; [6]): 14.6983; Kobs (MMP-2 [2]; [7]): 1513.13 M⁻¹ s⁻¹; Kobs (MMP-9; [8]): 2218.08 M⁻¹ s⁻¹
AMPLH-MTASG,–,–,–,–,relative probability (RP) (MMP-2 [1]; [6]): 30.0095; Kobs (MMP-2 [2]; [7]): 6688.74 M⁻¹ s⁻¹; Kobs (MMP-9; [8]): 7386.83 M⁻¹ s⁻¹
ANYSN-ITASG,–,–,–,–,relative probability (RP) (MMP-2 [1]; [6]): 14.6847; Kobs (MMP-2 [2]; [7]): 4470.66 M⁻¹ s⁻¹; Kobs (MMP-9; [8]): 0 M⁻¹ s⁻¹
APVLA-LTASG,–,–,–,–,relative probability (RP) (MMP-2 [1]; [6]): 13.5229; Kobs (MMP-2 [2]; [7]): 12792.1 M⁻¹ s⁻¹; Kobs (MMP-9; [8]): 6688.74 M⁻¹ s⁻¹
APYNH-LTASG,–,–,–,–,relative probability (RP) (MMP-2 [1]; [3]): 3.693; Kobs (MMP-2 [2]; [4]): 1327.88 M⁻¹ s⁻¹; Kobs (MMP-9; [5]): 990.764 M⁻¹ s⁻¹
ARIEY-LTASG,–,–,–,–,relative probability (RP) (MMP-2 [1]; [3]): 5.366; Kobs (MMP-2 [2]; [4]): 1816.46 M⁻¹ s⁻¹; Kobs (MMP-9; [5]): 654.784 M⁻¹ s⁻¹
ARLGY-LTASG,–,–,–,–,relative probability (RP) (MMP-2 [1]; [3]): 24.8925; Kobs (MMP-2 [2]; [4]): 10866.7 M⁻¹ s⁻¹; Kobs (MMP-9; [5]): 418.952 M⁻¹ s⁻¹
ARPEF-LTASG,–,–,–,–,relative probability (RP) (MMP-2 [1]; [3]): 12.0159; Kobs (MMP-2 [2]; [4]): 8941.32 M⁻¹ s⁻¹; Kobs (MMP-9; [5]): 7015.91 M⁻¹ s⁻¹
ARSYN-LTASG,–,–,–,–,relative probability (RP) (MMP-2 [1]; [3]): 6.093; Kobs (MMP-2 [2]; [4]): 3165.09 M⁻¹ s⁻¹; Kobs (MMP-9; [5]): 3964.21 M⁻¹ s⁻¹
ARVRH-LTASG,–,–,–,–,relative probability (RP) (MMP-2 [1]; [3]): 25.4239; Kobs (MMP-2 [2]; [4]): 7815.03 M⁻¹ s⁻¹; Kobs (MMP-9; [5]): 4335.13 M⁻¹ s⁻¹
ASTLH-LTASG,–,–,–,–,relative probability (RP) (MMP-2 [1]; [6]): 2.471; Kobs (MMP-2 [2]; [7]): 0 M⁻¹ s⁻¹; Kobs (MMP-9; [8]): 56.119 M⁻¹ s⁻¹
ATIAH-LTASG,–,–,–,–,relative probability (RP) (MMP-2 [1]; [6]): 32.9345; Kobs (MMP-2 [2]; [7]): 12792.1 M⁻¹ s⁻¹; Kobs (MMP-9; [8]): 1465.65 M⁻¹ s⁻¹
ATPES-LTASG,–,–,–,–,relative probability (RP) (MMP-2 [1]; [3]): 26.0767; Kobs (MMP-2 [2]; [4]): 8941.32 M⁻¹ s⁻¹; Kobs (MMP-9; [5]): 6131.32 M⁻¹ s⁻¹
AVANS-LTASG,–,–,–,–,relative probability (RP) (MMP-2 [1]; [3]): 10.0738; Kobs (MMP-2 [2]; [4]): 7386.83 M⁻¹ s⁻¹; Kobs (MMP-9; [5]): 1465.65 M⁻¹ s⁻¹
AVLSN-LTASG,–,–,–,–,relative probability (RP) (MMP-2 [1]; [6]): 32.5007; Kobs (MMP-2 [2]; [7]): 8321.48 M⁻¹ s⁻¹; Kobs (MMP-9; [8]): 261.974 M⁻¹ s⁻¹
AYGSH-LTASG,–,–,–,–,relative probability (RP) (MMP-2 [1]; [3]): 4.2785; Kobs (MMP-2 [2]; [4]): 3253.29 M⁻¹ s⁻¹; Kobs (MMP-9; [5]): 654.784 M⁻¹ s⁻¹
TAPIN-LTASG,12792.1,12792.1,–,–,–
TMPYL-LTASG,–,–,1870.4,7815.03,–

Substance,Kobs (MMP-2 [2]; [9]) [M⁻¹ s⁻¹],Kobs (MMP-9; [10]) [M⁻¹ s⁻¹],Kobs (MMP-2 [2]; [11]) [M⁻¹ s⁻¹],Kobs (MMP-9; [12]) [M⁻¹ s⁻¹],other results
TPVGW-MTASG,12792.1,5269.78,–,–,–
TRMAL-LTASG,–,–,3438.54,84.609,–
TTALW-LTASG,–,–,6131.32,4922.1,–
TTSAS-LTASG,–,–,3165.09,171.876,–
TTSLR-LTASG,–,–,0,84.609,–
TVLRS-LTASG,12792.1,3536.02,–,–,–
TVSLP-LTASG,–,–,2097.28,355.093,–
VDILH-LTASG,3438.54,551.253,–,–,–
VFALN-LTASG,12792.1,12792.1,–,–,–
VFYQS-LTASG,12792.1,0,–,–,–
VHAVW-LTASG,12792.1,12792.1,–,–,–
VKAQH-LTASG,–,–,7815.03,2476.66,–
VMHQN-LTASG,–,–,8941.32,171.876,–
VPPMP-LTASG,12792.1,12792.1,–,–,–
VQLRS-LTASG,12792.1,7015.91,–,–,–
VRTMA-LTASG,142.481,1030.73,–,–,–
VVAVS-LTASG,12792.1,9740.44,–,–,–
WLYAH-YTASG,–,–,1816.46,113.394,–
WNSLN-LTASG,–,–,484.315,451.441,–
WSVQL-LTASG,551.253,355.093,–,–,–
WVANM-ITASG,7386.83,1513.13,–,–,–
YAPGS-MTASG,5269.78,3741.87,–,–,–
YFARQ-LTASG,2038.8,3438.54,–,–,–
YKAFT-MTASG,–,–,113.394,386.839,–
YNVNY-LTASG,–,–,3964.21,201.585,–
YYASH-LTASG,–,–,7015.91,1373.05,–

# Second part, led by results:
Kobs (MMP-2 [2]; [9]) [M⁻¹ s⁻¹],Kobs (MMP-9; [10]) [M⁻¹ s⁻¹],Kobs (MMP-2 [2]; [11]) [M⁻¹ s⁻¹],Kobs (MMP-9; [12]) [M⁻¹ s⁻¹],Substance,other results
56.119,113.394,–,–,SYMFS-LTASG,–
12792.1,323.705,–,–,TALGY-LTASG,–
–,–,12792.1,5889.62,TAVRS-LTASG,–
–,–,0,113.394,TGSWP-LTASG,–
4763.33,10866.7,–,–,TKVLW-LTASG,–
–,–,12792.1,9740.44,TLPHS-LTASG,–
0,0,–,–,TLTHH-LTASG,–
6688.74,4470.66,–,–,TMAHP-LTASG,–
10866.7,7815.03,–,–,TRPQH-LTASG,–
8321.48,4335.13,–,–,TSVLA-LTASG,–
–,–,0,292.668,TWAKM-LTASG,–
–,–,12792.1,113.394,VAISR-LTASG,–
5269.78,0,–,–,VDHAH-LTASG,–
–,–,7015.91,2837.92,VEAHA-LTASG,–
5461.43,2476.66,–,–,VHVHA-LTASG,–
12792.1,10866.7,–,–,VIVAA-LTASG,–
–,–,5461.43,8321.48,VKVWG-LTASG,–

Kobs (MMP-2 [2]; [9]) [M⁻¹ s⁻¹],Kobs (MMP-9; [10]) [M⁻¹ s⁻¹],Kobs (MMP-2 [2]; [11]) [M⁻¹ s⁻¹],Kobs (MMP-9; [12]) [M⁻¹ s⁻¹],Substance,other results
–,–,12792.1,5269.78,VNVRN-LTASG,–
12792.1,654.784,–,–,VSISF-LTASG,–
–,–,0,0,VSVDQ-LTASG,–
12792.1,12792.1,–,–,VTPLY-LTASG,–
1711.63,951.362,–,–,VTVIA-LTASG,–
7386.83,8321.48,–,–,VWGRA-LTASG,–
–,–,8941.32,142.481,VYSAY-LTASG,–
12792.1,0,–,–,WHFGA-LTASG,–
12792.1,7815.03,–,–,WLAQA-LTASG,–
0,27.918,–,–,YATWS-MTASG,–
–,–,3637.04,7815.03,YFPLD-MTASG,–
12792.1,12792.1,–,–,YLPRA-ITASG,–
551.253,585.336,–,–,YQTMA-LTASG,–
7015.91,5090.5,–,–,YRVAF-LTASG,–
–,–,1561.44,3964.21,YSALP-MTASG,–
–,–,4470.66,2476.66,YSPSL-ITASG,–
–,–,726.013,0,YTMLH-LTASG,–
